Holding throughout (type): in vivo
Experiment [1] has as its system common house mosquito (Culex pipiens pallens). Nature of the experiment: whole plant or invertebrate. Conditions: 24 h, Test Example 8, last instar larvae, after 1 day, 25° C., read-out: mortality of insects. An excerpt: Mortality (%)=(Number of dead insects/Number of tested insects)×100
The subject of experiment [2] is Western corn rootworms (Diabrotica virgifera virgifera). Nature of the experiment: whole plant or invertebrate. Conditions: 120 h, Test Example 9-1, corn seedling immersed 30 seconds, second instar larvae, after 5 days, 25° C., read-out: mortality of insects. As for the experimental part: Each 1 mg of the test compounds is dissolved into 50 μL of a mixed solution of polyoxyethylene sorbitan mono-cocoate and acetone (polyoxyethylene sorbitan mono-cocoate:acetone=5:95 (v/v ratio)).
A young entire seedling of Corns (Zea mays) is immersed into the diluted solution for 30 seconds. […] Mortality (%)=(Number of dead insects/10}×100

In experiment [3] the test system is housefly (Musca domestica). Nature of the experiment: Test method 6: filter paper with sucrose bait, housefly female adults. Conditions: Test Example 6, 0.7 ml on filter paper with sucrose bait, after 24 hours, 25° C., read-out: mortality of insects. As for the experimental part: A filter paper having a diameter of 5.5 cm in diameter is spread on the bottom of the cup, and then 0.7 ml of the diluted solutions are added dropwise to the filter paper and 30 mg of sucrose is uniformly placed on the filter paper as a bait. Ten (10) housefly (Musca domestica) female adults are released into the cup, and the cup is then covered with the lid. […] Mortality (%)=(Number of dead insects/Number of tested insects)×100

Experiment [4] concerns housefly (Musca domestica). Nature of the experiment: Test method 7: coated container, housefly female adults. The note with it: Test Example 7-1, container coated at 40 mg/m^2 (800 ppm acetone solution), elapsed time 1 hour, 25° C., read-out: mortality of insects. As for the experimental part: An acetone solution which is adjusted to 800 ppm of the test compound is poured into a container having 20 mL contents, and the test compound is coated uniformly on inner face of the container so as to make 40 mg/m^2 thereof, and the container is then allowed to dry.
Into the container, five (5) housefly (Musca domestica) female adults are released into the container, and the container is then covered with the lid. […] Mortality (%)=(Number of dead insects/Number of tested insects)×100

Turning to `CCSc1c(-n2cnc3cc(C(F)(F)F)ccc3c2=O)nc2ccc(Br)cn12` [Present compound 2-1], the mortality at 3.5 ppm in experiment [1] is ≥ 91%. Also, in experiment [2], the mortality at 500 ppm is ≥ 80%.
With `CCSc1c(-n2cnc3cc(C(F)(F)F)ccc3c2=O)nc2cc(C(F)(F)F)ccn12` [Present compound 2-15], the mortality at 500 ppm in experiment [3] was ≥ 70%. Also, in experiment [1], the mortality at 3.5 ppm was ≥ 91%.
On to `CCSc1c(-n2nnc3ccc(C(F)(F)F)cc3c2=O)nc2ccc(Br)cn12` [Present compound 4-2], for which, in experiment [1], the mortality at 3.5 ppm was ≥ 91%. Besides, the mortality at 500 ppm in experiment [2] was ≥ 80%. Further, the mortality at 40 mg/m2 in experiment [4] was ≥ 80%.
